Drawing on patent publication US20250144094A1 (Erasca, Inc., priority 2021, published 2025), this text covers IC50 for 22 molecules.

This test deals with Recombinant human ULK1 (1-649) (Homo sapiens (Human), UniProt O75385). Briefly: ULK1 ADP Glo kinase activity assay, new method (ULKtide peptide substrate). Conditions: 25° C., 40 minutes, read-out: ULK1 biochemical IC50. The method, boiled down: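 Kinase activity was read as ADP production (ADP-Glo, luminescence 30 min after detection reagent) following a 40-min, 25 °C reaction of Sf9-expressed GST-ULK1 (1-649) with ULKtide substrate and ATP. Compounds ran as 12-point series starting at 10 μM; four-parameter curve fitting versus DMSO wells gave IC50.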
On the technique in general: ADP-Glo first removes unused ATP, then detects ADP through luciferase.

Sequence of Recombinant human ULK1 (1-649) (O75385 1-649): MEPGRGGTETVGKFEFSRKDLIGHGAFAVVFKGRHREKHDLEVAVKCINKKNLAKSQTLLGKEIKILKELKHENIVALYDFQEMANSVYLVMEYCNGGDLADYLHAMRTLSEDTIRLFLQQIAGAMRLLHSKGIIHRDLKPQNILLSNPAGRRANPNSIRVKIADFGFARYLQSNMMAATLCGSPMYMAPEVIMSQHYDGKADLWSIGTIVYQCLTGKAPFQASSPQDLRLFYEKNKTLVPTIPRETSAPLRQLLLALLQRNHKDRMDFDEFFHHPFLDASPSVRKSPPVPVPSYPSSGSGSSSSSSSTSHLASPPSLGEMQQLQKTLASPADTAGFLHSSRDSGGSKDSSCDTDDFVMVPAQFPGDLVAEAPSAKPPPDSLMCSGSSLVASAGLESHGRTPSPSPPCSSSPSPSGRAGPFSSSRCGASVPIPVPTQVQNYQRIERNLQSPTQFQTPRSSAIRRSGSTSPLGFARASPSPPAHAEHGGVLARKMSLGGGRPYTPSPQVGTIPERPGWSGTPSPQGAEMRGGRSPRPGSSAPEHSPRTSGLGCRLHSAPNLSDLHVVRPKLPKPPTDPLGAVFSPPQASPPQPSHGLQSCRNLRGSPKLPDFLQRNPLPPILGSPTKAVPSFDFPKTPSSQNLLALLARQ

The IC50 is the point on the concentration scale where inhibition reaches its midpoint. With `CCc1cc2c(cc1Nc1ncc(C(F)(F)F)c(-c3cc4c(s3)C(=O)N(C3COC3)CCS4(=O)=O)n1)CNCC2` [Example 262, 7-(2-((6-ethyl-1,2,3,4-tetrahydroisoquinolin-7-yl)amino)-5-(trifluoromethyl)pyrimidin-4-yl)-4-(oxetan-3-yl)-3,4-dihydrothieno[2,3-f][1,4]thiazepin-5(2H)-one 1,1-dioxide], the IC50 is not above 5 nM.
With `CC(C)c1cc2c(cc1Nc1ncc(C(F)(F)F)c(-c3cc4c(s3)C(=O)N(C3CC3)CCS4(=O)=O)n1)CCNC2` [Example 263, 4-cyclopropyl-7-(2-((7-isopropyl-1,2,3,4-tetrahydroisoquinolin-6-yl)amino)-5-(trifluoromethyl)pyrimidin-4-yl)-3,4-dihydrothieno[2,3-f][1,4]thiazepin-5(2H)-one 1,1-dioxide] the figure was not above 5 nM; with `CCc1cc(N2CCNCC2)ccc1Nc1ncc(C(F)(F)F)c(-c2cc3c(s2)C(=O)N(C2CC2)CCS3(=O)=O)n1` [Example 264, 4-cyclopropyl-7-(2-((2-ethyl-4-(piperazin-1-yl)phenyl)amino)-5-(trifluoromethyl)pyrimidin-4-yl)-3,4-dihydrothieno[2,3-f][1,4]thiazepin-5(2H)-one 1,1-dioxide], not above 5 nM; with `CCc1cc(N2CCN(CC3CC3)CC2)ccc1Nc1ncc(C(F)(F)F)c(-c2cc3c(s2)C(=O)N(C2CC2)CCS3(=O)=O)n1` [Example 265, 4-cyclopropyl-7-(2-((4-(4-(cyclopropylmethyl)piperazin-1-yl)-2-ethylphenyl)amino)-5-(trifluoromethyl)pyrimidin-4-yl)-3,4-dihydrothieno[2,3-f][1,4]thiazepin-5(2H)-one 1,1-dioxide], not above 5 nM.
`CCc1cc(N2CCN(CC3COC3)CC2)ccc1Nc1ncc(C(F)(F)F)c(-c2cc3c(s2)C(=O)N(C2CC2)CCS3(=O)=O)n1` [Example 266, 4-cyclopropyl-7-(2-((2-ethyl-4-(4-(oxetan-3-ylmethyl)piperazin-1-yl)phenyl)amino)-5-(trifluoromethyl)pyrimidin-4-yl)-3,4-dihydrothieno[2,3-f][1,4]thiazepin-5(2H)-one 1,1-dioxide]: the IC50 is not above 5 nM.
On to `CCN1CCc2cc(Nc3ncc(C(F)(F)F)c(-c4cc5c(s4)C(=O)N(C4CC4)CCS5(=O)=O)n3)c(C(C)C)cc2C1` [Example 267, 4-cyclopropyl-7-(2-((2-ethyl-7-isopropyl-1,2,3,4-tetrahydroisoquinolin-6-yl)amino)-5-(trifluoromethyl)pyrimidin-4-yl)-3,4-dihydrothieno[2,3-f][1,4]thiazepin-5(2H)-one 1,1-dioxide], for which the IC50 is not above 5 nM.
`CC(C)c1cc2c(cc1Nc1ncc(C(F)(F)F)c(-c3cc4c(s3)C(=O)N(C3CC3)CCS4(=O)=O)n1)CCN(CC1CC1)C2` [Example 268, 4-cyclopropyl-7-(2-((2-(cyclopropylmethyl)-7-isopropyl-1,2,3,4-tetrahydroisoquinolin-6-yl)amino)-5-(trifluoromethyl)pyrimidin-4-yl)-3,4-dihydrothieno[2,3-f][1,4]thiazepin-5(2H)-one 1,1-dioxide]: the IC50 was not above 5 nM.
For the molecule `CC(C)c1cc2c(cc1Nc1ncc(C(F)(F)F)c(-c3cc4c(s3)C(=O)N(C3CC3)CCS4(=O)=O)n1)CCN(CC1COC1)C2` [Example 269, 4-cyclopropyl-7-(2-((7-isopropyl-2-(oxetan-3-ylmethyl)-1,2,3,4-tetrahydroisoquinolin-6-yl)amino)-5-(trifluoromethyl)pyrimidin-4-yl)-3,4-dihydrothieno[2,3-f][1,4]thiazepin-5(2H)-one 1,1-dioxide], the concentration for half-maximal inhibition (IC50) is not above 5 nM.
For `O=C1c2sc(-c3nc(Nc4cc5c(cc4C4CC4)CCNC5)ncc3C(F)(F)F)cc2S(=O)(=O)CCN1C1COC1` [Example 270, 7-(2-((6-cyclopropyl-1,2,3,4-tetrahydroisoquinolin-7-yl)amino)-5-(trifluoromethyl)pyrimidin-4-yl)-4-(oxetan-3-yl)-3,4-dihydrothieno[2,3-f][1,4]thiazepin-5(2H)-one 1,1-dioxide] the value was not above 5 nM.
Consider `CCc1cc(N2CCN(CC)CC2)ccc1Nc1ncc(C(F)(F)F)c(-c2cc3c(s2)C(=O)N(C2CC2)CCS3(=O)=O)n1` [Example 271, 4-cyclopropyl-7-(2-((2-ethyl-4-(4-ethylpiperazin-1-yl)phenyl)amino)-5-(trifluoromethyl)pyrimidin-4-yl)-3,4-dihydrothieno[2,3-f][1,4]thiazepin-5(2H)-one 1,1-dioxide], for which the IC50 is not above 5 nM.
Turning to `CCc1cc(N2CCN(C(C)C)CC2)ccc1Nc1ncc(C(F)(F)F)c(-c2cc3c(s2)C(=O)N(C2CC2)CCS3(=O)=O)n1` [Example 272, 4-cyclopropyl-7-(2-((2-ethyl-4-(4-isopropylpiperazin-1-yl)phenyl)amino)-5-(trifluoromethyl)pyrimidin-4-yl)-3,4-dihydrothieno[2,3-f][1,4]thiazepin-5(2H)-one 1,1-dioxide], the IC50 was not above 5 nM.
For `O=C1c2sc(-c3nc(Nc4cc5c(cc4OC(F)(F)F)CNCC5)ncc3C(F)(F)F)cc2S(=O)(=O)CCN1C1CC1` [Example 273, 4-cyclopropyl-7-(2-((7-(trifluoromethoxy)-1,2,3,4-tetrahydroisoquinolin-6-yl)amino)-5-(trifluoromethyl)pyrimidin-4-yl)-3,4-dihydrothieno[2,3-f][1,4]thiazepin-5(2H)-one 1,1-dioxide] the value was not above 5 nM; for `CCc1cc2c(cc1Nc1ncc(C(F)(F)F)c(-c3cc4c(s3)C(=O)N(C3COC3)CCS4(=O)=O)n1)CCN(CC1CC1)C2` [Example 274, 7-(2-((2-(cyclopropylmethyl)-7-ethyl-1,2,3,4-tetrahydroisoquinolin-6-yl)amino)-5-(trifluoromethyl)pyrimidin-4-yl)-4-(oxetan-3-yl)-3,4-dihydrothieno[2,3-f][1,4]thiazepin-5(2H)-one 1,1-dioxide], not above 5 nM.
With `CCc1cc2c(cc1Nc1ncc(C(F)(F)F)c(-c3cc4c(s3)C(=O)N(C3COC3)CCS4(=O)=O)n1)CCN(CC1COC1)C2` [Example 275, 7-(2-((7-ethyl-2-(oxetan-3-ylmethyl)-1,2,3,4-tetrahydroisoquinolin-6-yl)amino)-5-(trifluoromethyl)pyrimidin-4-yl)-4-(oxetan-3-yl)-3,4-dihydrothieno[2,3-f][1,4]thiazepin-5(2H)-one 1,1-dioxide], the IC50 is not above 5 nM.
For `N#CCN1CCc2cc(Nc3ncc(C(F)(F)F)c(-c4cc5c(s4)C(=O)N(C4CC4)CCS5(=O)=O)n3)c(C3CC3)cc2C1` [Example 276, 2-(7-cyclopropyl-6-((4-(4-cyclopropyl-1,1-dioxido-5-oxo-2,3,4,5-tetrahydrothieno[2,3-f][1,4]thiazepin-7-yl)-5-(trifluoromethyl)pyrimidin-2-yl)amino)-3,4-dihydroisoquinolin-2(1H)-yl)acetonitrile] the value was 10 to 50 nM; for `CCc1cc2c(cc1Nc1ncc(C(F)(F)F)c(-c3cc4c(s3)C(=O)N(C3CC3)CCS4(=O)=O)n1)CCN(CC1COC1)C2` [Example 277, 4-cyclopropyl-7-(2-((7-ethyl-2-(oxetan-3-ylmethyl)-1,2,3,4-tetrahydroisoquinolin-6-yl)amino)-5-(trifluoromethyl)pyrimidin-4-yl)-3,4-dihydrothieno[2,3-f][1,4]thiazepin-5(2H)-one 1,1-dioxide], not above 5 nM; for `CC1(CN2CCc3cc(Nc4ncc(C(F)(F)F)c(-c5cc6c(s5)C(=O)N(C5CC5)CCS6(=O)=O)n4)c(C4CC4)cc3C2)COC1` [Example 279, 4-cyclopropyl-7-(2-((7-cyclopropyl-2-((3-methyloxetan-3-yl)methyl)-1,2,3,4-tetrahydroisoquinolin-6-yl)amino)-5-(trifluoromethyl)pyrimidin-4-yl)-3,4-dihydrothieno[2,3-f][1,4]thiazepin-5(2H)-one 1,1-dioxide], not above 5 nM.
In the case of `CCc1cc(N2CCN(CC(N)=O)CC2)ccc1Nc1ncc(C(F)(F)F)c(-c2cc3c(s2)C(=O)N(C2CC2)CCS3(=O)=O)n1` [Example 280, 2-(4-(4-((4-(4-cyclopropyl-1,1-dioxido-5-oxo-2,3,4,5-tetrahydrothieno[2,3-f][1,4]thiazepin-7-yl)-5-(trifluoromethyl)pyrimidin-2-yl)amino)-3-ethylphenyl)piperazin-1-yl)acetamide], the half-maximal inhibitory concentration (IC50) was not above 5 nM.
For the molecule `CCc1cc(C2CCN(CCF)CC2)ccc1Nc1ncc(C(F)(F)F)c(-c2cc3c(s2)C(=O)N(C2CC2)CCS3(=O)=O)n1` [Example 282, 4-cyclopropyl-7-(2-((2-ethyl-4-(1-(2-fluoroethyl)piperidin-4-yl)phenyl)amino)-5-(trifluoromethyl)pyrimidin-4-yl)-3,4-dihydrothieno[2,3-f][1,4]thiazepin-5(2H)-one 1,1-dioxide], the IC50 was not above 5 nM.
Take `CN1CCS(=O)(=O)c2cc(-c3nc(Nc4cc5c(cc4Cl)CNCC5)ncc3C3CC3)sc2C1=O` [Example 283, 7-(2-((7-chloro-1,2,3,4-tetrahydroisoquinolin-6-yl)amino)-5-cyclopropylpyrimidin-4-yl)-4-methyl-3,4-dihydrothieno[2,3-f][1,4]thiazepin-5(2H)-one 1,1-dioxide]: the IC50 is not above 5 nM.
Consider `NC(=O)CN1CCc2cc(Nc3ncc(C(F)(F)F)c(-c4cc5c(s4)C(=O)N(C4COC4)CCS5(=O)=O)n3)c(C3CC3)cc2C1` [Example 284, 2-(7-cyclopropyl-6-((4-(4-(oxetan-3-yl)-1,1-dioxido-5-oxo-2,3,4,5-tetrahydrothieno[2,3-f][1,4]thiazepin-7-yl)-5-(trifluoromethyl)pyrimidin-2-yl)amino)-3,4-dihydroisoquinolin-2(1H)-yl)acetamide], for which the IC50 was not above 5 nM.
For the molecule `N#CCN1CCc2cc(Nc3ncc(C(F)(F)F)c(-c4cc5c(s4)C(=O)N(C4COC4)CCS5(=O)=O)n3)c(C3CC3)cc2C1` [Example 285, 2-(7-cyclopropyl-6-((4-(4-(oxetan-3-yl)-1,1-dioxido-5-oxo-2,3,4,5-tetrahydrothieno[2,3-f][1,4]thiazepin-7-yl)-5-(trifluoromethyl)pyrimidin-2-yl)amino)-3,4-dihydroisoquinolin-2(1H)-yl)acetonitrile], the IC50 fell in the range of 5 to 10 nM.
